Experimental data published in patent publication US20210032257A1, “(E)-1-(4-(DIMETHYLAMINO)BUT-2-ENOYL)PYRROLIDIN-3-YL 4-((3-ISOPROPYL-5-METHYLPYRAZOLO[1,5-A]PYRIMIDIN-7-YL)AMINO)PIPERIDINE-1-CARBOXYLATE FOR INHIBITING CDK7” (Eli Lilly and Company, priority 2017, published 2021).

Assays:
[1] = system: H460 xenograft; assay: Xenograft Tumor Model; format: in vivo, mice; conditions: H460, Lung, ARID1A; 20 mg/kg PO QDx35
Experimental: To evaluate in vivo efficacy of a test compound, multiple xenograft tumor models are utilized. Briefly, 5-10×10^6 tumor cells in a 1:1 MATRIGEL® mix (0.2 mL total volume) are injected subcutaneously into the female athymic nude mice (Envigo, Harlan laboratories) for a majority of xenograft tumor models. Alternate mice strains are utilized to establish MDAMB468 (NOD SCID Gamma, Jackson labs), CT26 and EMT6 (BALB/c, Envigo, Harlan Laboratories) xenografts. After allowing tumors to reach a desired size of ˜300-500 mm^3, animals are randomized into groups of 6-8 for efficacy studies. Test compound is administered via oral gavage (PO) at indicated doses and regimens. Tumor growth and body weight are monitored over time to evaluate efficacy and signs of toxicity.
Test compound is formulated in 5% N-methyl-2-pyrrolidone (NMP) in 1% hydroxyethylcellulose, 0.25% polysorbate 80, 0.05% antifoam in purified water (HEC) and administered by oral gavage (final volume 0.2 mL) at the doses indicated in Table 4. A test compound is formulated on a weekly basis and stored at 4° C. Vehicles are administered to the control groups according the schedules used above using a volume of 0.2 mL per dose. Mice are dosed via oral gavage and tumor samples are collected at termination and stored at −80° C.
Tumor size and body weight are recorded and analyzed bi-weekly. Blood is collected using DBS (dried blood spot) card 2 hours after dose and at termination. Tumors are collected at study termination, cut into 3 sections and either snap frozen for exposure and protein analysis, or placed in RNAlater® for RNA analysis. Tissue samples are frozen and stored at −80° C.
Delta T/C % is calculated when the endpoint tumor volume in a treated group is at or above baseline tumor volume. The formula is 100*(T−T0)/(C−C0). Here, T and C are mean endpoint tumor volumes in the treated or control group, respectively. TO and CO are mean baseline tumor volumes in those groups. *: Significant (p<0.05)

[2] = system: KMT2D mutants cancer cell lines; assay: Biomarker study: distribution of anti-proliferation effects; format: cell-based
Experimental: (§1) Cancer cell lines are profiled to evaluate the anti-proliferative activity of a test compound in-vitro. Mutation, copy number and gene expression information of ARID1A, KMT2C, KMT2D and/or RB1 genes across cancer cell lines is obtained from COSMIC database (cancer.sanger.ac.uk) and cBioportal (http://www.cbioportal.org/). Cells are cultured in growth medium and plated into a 96-well plate in 100 μL/well growth medium at 5000 cells/well then incubated at 37° C., 5% CO2 overnight. Cells are cultured using supplier recommended media and conditions well known in the art, for example with RPMI 1640 with or without HEPES & L-Glutamine (Thermo SH30255.01) and 1 mM Sodium Pyruvate, and 10% FBS(Gibco cat #10082). The 1000× intermediate dilution plate is prepared by making a 10 mM working solution of a test sample in DMSO and performing 1:3 dilutions in DMSO for 10 points. The 10× dosing plate is prepared by adding 2 μL from the 1000× intermediate dilution plate to 198 μL of OPTIMEM®+10% FBS and mixing well. The cell plate is then treated by adding 11 μL from the 10× dosing plate into the 100 μL/well cell plate for a 1× final concentration. Staurosporine is used as a maximum growth inhibition control at a final concentration of 5 μM. The cell plate is incubated for 7 days at 37° C., 5% CO2. Seven days after treatment, Cell Titer-Glo® (Promega cat #G7571) assay buffer and substrate are removed from −20° C. and allowed to equilibrate to RT. Assay buffer is added to the substrate and swirled gently to mix. The CELL TITER-GLO® reagent (100 μL/well) is added to the cell plate and incubated at RT for 15 minutes. After 15 minutes, luminescence is read using a plate reader. Data is analyzed in Excel and graphed in GraphPad Prism. Statistical analysis and p value is calculated using Mann-Whitney nonparameteric t tests using GraphPad Prism.
(§2) Anti-proliferative effects of a test compound are categorized as insensitive (IC50≥1 μM), cytostatic (IC50<1 μM and % inhibition <70%) or cytotoxic (IC50<1 μM and % inhibition ≥70%).

[3] = system: RB1 mutants cancer cell lines; assay: as above; format: cell-based
Experimental: as §1, §2

[4] = system: KMT2C mutants cancer cell lines; assay: as above; format: cell-based
Experimental: as §1, §2

[5] = system: Others (cancer cell lines); assay: as above; format: cell-based
Experimental: as §1, §2

[6] = system: ARID1A mutants cancer cell lines; assay: as above; format: cell-based
Experimental: as §1, §2

## Cc1cc(NC2CCN(C(=O)O[C@H]3CCN(C(=O)/C=C/CN(C)C)C3)CC2)n2ncc(C(C)C)c2n1 [Example 1, [(3S)-1-[(E)-4-(dimethylamino)but-2-enoyl]pyrrolidin-3-yl] 4-[(3-isopropyl-5-methyl-pyrazolo[1,5-a]pyrimidin-7-yl)amino]piperidine-1-carboxylate]
[1]
  Avg. ΔT/C: 16%
[2]
  Distribution (%) of anti-proliferation effects: Cytotoxic (IC50 <1 μM, % Inh. ≥70): 76%, n = 19
[3]
  Distribution (%) of anti-proliferation effects: Cytotoxic (IC50 <1 μM, % Inh. ≥70): 54%, n = 22
[4]
  Distribution (%) of anti-proliferation effects: Cytotoxic (IC50 <1 μM, % Inh. ≥70): 70%, n = 7
[5]
  Distribution (%) of anti-proliferation effects: Cytotoxic (IC50 <1 μM, % Inh. ≥70): 40%, n = 41
[6]
  Distribution (%) of anti-proliferation effects: Cytotoxic (IC50 <1 μM, % Inh. ≥70): 64%, n = 25
